Experimental data taken from US20110124607A1, “COMPOSITION FOR REGULATION CELLULAR SENESCENCE COMPRISING LYSOPHOSPHATIDIC ACID AND INHIBITOR OF ADENYLYL CYCLASE AS ACTIVE INGREDIENTS” (priority 2008, published 2011).
Like-named read-outs stand apart in the source and are kept apart here.

Legend:
[1] = tested on: young cells (human fibroblasts); experiment: Cell cycle analysis by flow cytometry (S phase entry), young cells; format: cell-based; conditions: 30 μM LPA
Procedure: (§1) At this time, cell numbers regarded as significant compared with that of the control were presented in (A) and (B) (p<0.001). Cell cycle in (C) was analysed by flow cytometry. The percentage of cells entered S phase was averaged of three repeated measurements (p<0.001). Young and senescent cells were treated with 30 μM of LPA, 300 μM of ACI, LPA+ACI, 10 mM of AMPKI or 10 mM of AICAR, followed by culture for 1, 2, and 4 days. To analyze cell cycle, the cells were washed with buffer twice and then the cells were centrifuged using 0.25% trypsin, followed by fixation in cold 70% ethanol. Analysis was performed by flow cytometry (Becton Dickinson FACSorter) using […] of PI containing RNase. Cell proliferation and cAMP level were increased by LPA in senescent cells (Yeo et al., 2002). The AC inhibitor (ACI) was added to reduce cAMP which had been increased by LPA. And then, cell proliferation was investigated. Cells were cultured in serum-free medium for 2 days to arrest them in G0/G1 phase. Then, the cells were treated with LPA, ACI or LPA+ACI. Total cell number was measured on day 1, day 2 and day 4, or the cells entered into S phase were counted to evaluate cell proliferation. When young cells were treated with 300 μM of ACI, cell proliferation was reduced, compared with control (FIG. 1A). […]

p21waf1/cip1 = experiment: Immuno-blotting of p21waf1/cip1; format: cell-based, human; conditions: for p21 expression after suppressing PKA: senescent cells pre-treated with 10 mM PKA inhibitor Rp-cAMP for one hour; for p21 expression (immuno-blotting): senescent cells, 30 μM LPA, 300 μM ACI, 10 mM AMPKI, 10 mM AICAR
Procedure: (A) and (B): Young and senescent cells were serum-starved for 2 days, followed by treatment with 10 mM of AMPK inhibitor […]) or 10 mM of AMPK activator AICAR(B) for 4 days. Proteins were extracted from the treated cells and the levels of AMPKα and p-Thr172-AMPKα, total p53, p-Ser15-p53 and […] measured by immuno-blotting. (C) and (D): Young cells (C) and senescent cells (D) were treated with 10 mM AMPKI or 10 mM AICAR and cultured for 4 days, followed by measurement of cell proliferation by cell counting. At this time, the experiment was repeated three times (p<0.001). (A) and (B) are photographs illustrating the results of immuno-blotting. Precisely, sub-cultured young cells (PD 18: A) and senescent cells (PD 64: B) were treated with 30 μM of LPA […] and ACI singly or together, followed by further culture for 1, 2, and 4 days. Proteins were extracted from the cultured cells and the levels of AMPKα, […] β-actin were quantified by immuno-blotting. (A) and (B) are photographs illustrating the results of immuno-blotting. Precisely, senescent cells (PD 64) were pre-treated with 10 mM of PKA inhibitor Rp-cAMP for one hour, followed by treatment with LPA(A) or ACI(B). After culturing the cells for 1, 2, and 4 days, proteins were extracted from the cultured cells and the levels of AMPKα, […] β-actin were quantified by immuno-blotting using 45 μg of the protein. To analyse protein expression, human fibroblasts were lysed in cold lysis buffer (25 mM Hepes, pH 8.0, 150 mM NaCl, 1 mM EDTA, 1 mM Na3VO4, 1 mM NaF, 1% Triton X-100 and protease inhibitors), followed by centrifugation at 4° C. at 9,000 rpm for 10 minutes to obtain supernatant. Protein in the extract was quantified […]. SDS-PAGE electrophoresis was performed with equal amount of the protein (45 μg) to separate. The separated protein was transferred onto NC membrane from the electrophoresis gel. Non-specific protein binding was blocked by blocking the blot (transferred NC membrane) using TTBS […] containing 5% skim milk for one hour. Then, antigen-antibody reaction was induced with diluted primary antibody at 4° C. for overnight. The blot was washed with TTBS, followed by reaction with horseradish peroxidase conjugated anti-IgGs diluted in TTBS containing 5% skim milk (1:5000) at room temperature for one hour. The blot was washed again with TTBS to eliminate non-specific binding of antigen-antibody. Photographs were developed/printed on X-ray film (Kodak) using ECL kit (Pierce) containing peroxidase substrate to identify each protein.

cAMP = conditions: cited from earlier work
[2] = tested on: senescent cells (human fibroblasts); experiment: Cell cycle analysis by flow cytometry (S phase entry), senescent cells; format: cell-based; conditions: 30 μM LPA, 300 μM ACI, 1, 2, 4 days
Procedure: as §1

[3] = tested on: senescent cells (human fibroblasts); experiment: Microscope observation of morphology of senescent cells; format: cell-based; conditions: day 4
Procedure: In the meantime, when senescent cells were treated with ACI, p21 expression was reduced on day 2 and day 4. […] Microscope observation also confirmed that young cell like cells were increased compared with the control (untreated senescent cells are bigger in size, so that less cells can be observed under microscope, compared with treated senescent cells). […] So was cyclin D1 expression (FIG. 3B). […] Thus, when senescent cells were treated with ACI, p21 and cyclin D1 expressions were reduced and thereby DNA synthesis in senescent cell increased to induce cell proliferation.

PKA = PKA activity in cells; format: cell-based, human

Compound | S phase entry [1] | p21 expression after suppressing PKA (p21waf1/cip1) | p21 expression (immuno-blotting) (p21waf1/cip1) | cAMP level (cAMP; senescent cells (Yeo et al., 2002)) | cAMP level (cAMP; young cells (Jang et al., 2006b)) | cell number entered into S phase [2] | change of senescent cells into young cell like cells [3] | PKA activity (PKA; senescent cells) | PKA activity (PKA; young cells)
lysophosphatidic acid [LPA] | promotion of S phase entry | not changed at all | reduced | increased | down-regulated |  |  |  | 
Nc1ncnc2c1ncn2C1CCCO1 (centres unmarked) [ACI, 9-(tetrahydro-2′-furyl)adenine] |  | not changed | reduced |  |  | increased | most cells were changed into young cell like cells | completely inhibited | completely inhibited
